These are literature values, as cited in patent US20080045583A1, “STABLE LEVETIRACETAM COMPOSITIONS AND METHODS” (priority 2006, published 2008).

The conditions of the data set: oral, with or without food.

`CC[C@@H](C(N)=O)N1CCCC1=O` [Levetiracetam, (−)-(S)-α-ethyl-2-oxo-1-pyrrolidine acetamide]: the “bioavailability, effect of food” value is recorded as “not affected by food”.
